# Measurements published in patent US20180127800A1 (priority 2016, published 2018).
# Target: HIV-1 protease (Human immunodeficiency virus type 1 group M subtype B, UniProt P04585)
# Assay type: cell-based
# Settings: Gal4/PR cell line induced by Dox, incubated with protease inhibitor
# Text: This type of cleavage was successfully monitored by a previously developed assay for HIV-1. The assay was developed in mammalian cells and relied on an engineered Gal4/protease fusion protein that travels to the nucleus and activates the GFP reporter gene when inhibited. The activation or lack thereof of the reporter GFP gene can be measured and quantified via flow cytometry.
# In the absence of Dox, rtTA cannot bind to the Tet-Responsive Element (TRE) and consequently, there is no GFP expression from the reporter construct. In the presence of Dox, rtTA binds to TRE and induces GFP expression. […] In the presence of Dox, PR/Gal4 is expressed; however, its autocatalytic activity results in the separation of the Gal4 domains, resulting in turn in the lack of GFP expression. However, in the presence of protease inhibitor (PI), the PR/Gal4 fusion remains intact, resulting in the induction of GFP expression.
# The plasmids include the rtTA, GFP reporter and Gal4 fusions. The Gal4 plasmids include Gal4 control, Gal4/PRm (mutant) and Gal4/PR.
# In order to be able to easily discriminate between cleaved and non-cleaved events (or active and non-active protease), the assay relied on the classical Gal4/UAS system broadly used in gene expression experiments. […]
compound,measurement,value
CC(C)(C)NC(=O)[C@@H]1CN(Cc2cccnc2)CCN1C[C@@H](O)C[C@@H](Cc1ccccc1)C(=O)N[C@H]1c2ccccc2C[C@H]1O [Indinavir],GFP expression of the PR cell line (flow cytometry),"not green when induced by Dox, unless it is also incubated with the PI IDV"
